Values quoted from earlier work in US7943796B2, “Lubricating oil additive and lubricating oil composition containing same” (Chevron Oronise Company LLC, priority 2008, dated 2011).

System: estrogen-inducible strain of yeast
Details: among alkylphenols, compared with 17β-estradiol

## CC(C)(C)CC(C)(C)c1ccc(O)cc1 [4-tert-octylphenol, 4-(1,1,3,3-Tetramethyl-butyl)-phenol]
  estrogenic activity: highest activity
